Test results published in US10434147B2, “Treatment type 2 diabetes mellitus patients” (Sanofi-Aventis Deutschland GmbH, priority 2015, dated 2019).

Columns and labels:
[1] = test system: obese type 2 diabetes mellitus patients poorly controlled with a basal insulin alone or with one to three oral anti-diabetic drugs; assay: 12-week insulin glargine titration (run-in); assay type: in vivo, human; conditions: 12 weeks titration, optionally with metformin
[2] = test system: Patients with Type 2 Diabetes Insufficiently Controlled with Insulin Glargine with or without Metformin; assay: Body weight, 26-week study; assay type: in vivo, human; conditions: once daily or three times daily; in words
Description: FIG. 6—Graphical study design. ^1 Insulin glargine should be injected subcutaneously once daily at dinner or breakfast time (according to patient's/investigators' preference). […] Meal used for insulin glulisine dosing should remain the same throughout the 26-week treatment period. ^4 Injection of insulin glulisine prior to breakfast, lunch and dinner.
Co-primary endpoints at 26 weeks were (1) non-inferiority (95% CI upper bound <0.4%) in HbA1c reduction with LIXI vs GLU-1 and (2) for LIXI vs GLU-3, either non-inferiority in HbA1c reduction (2a) OR superiority (one-sided α≤0.025) in body weight change (2b). FPG, PPG, IG dose, composite outcomes, AEs, and hypoglycemia were assessed.

| Substance | fasting glucose plasma concentration after titration of insulin glargine ([1]; initial reduction from 9.16 mmol/L) | HbA1c after titration of insulin glargine ([1]; initial reduction from 8.51%) | Effect of the comparative treatment on body weight [2] |
| --- | --- | --- | --- |
| Gly(A21)-Arg(B31)-Arg(B32) human insulin [insulin glargine] | 6.91 mmol/L | 7.87% | – |
| insulin glulisine: prandial insulin, comparative treatment once daily or three times daily | – | – | significant weight gain |
